Laboratory results: patent EP3363912B1, “SELF-CALIBRATED ASSAY FOR DETERMINING PROTEOLYTIC ENZYME GENERATION, DEDICATED MEANS AND USES THEREOF” (Synapse B.V., priority 2017, dated 2018)
Where a SMILES comes first, the peptide text is derived from it. The star is where a group is joined. AMC = Cc1cc(=O)oc2cc(N*)ccc12; Boc = CC(C)(C)OC(=O)*

Tests used:
Assay type in all cases: biochemical
[1] = molecular target: T1, plasmin-α2-macroglobulin complex (Homo sapiens, UniProt P00747); assay: Plasmin generation experiment on paper, calibrator curve with plasmin-α2-macroglobulin complex; conditions: substrate 300 µM with 8 µM AMC added, constant E 100 nM
T1 construct: thrombin and plasmin can be reacted with the plasma-derived protein α2-macroglobulin; made in house
Description: Stock solutions: SC-FII, prepared in house 1µM; Plasmin-α2macroglobulin complex, prepared in house 1 µM; rec Human recombinant tissue factor (TF) (Innovin; Siemens) 6µM. Phospholipids (PS:PC:PE, 2:6:2) prepared in house 1 mM, Human recombinant tissue plasminogen activator (tPA), (Alteplase Boehringer Ingelheim) 36 klU, Final concentrations used: SC-FII, 100 nM, Plasmin-α2macroglobulin 100 nM: tPA 300 IU. Substrate 300 µM,
To 40 µL of plasma was added 20 µL of the substrate solution (1,35 mM in BSA 60 buffer) so as to obtain a concentration of 450 µM.
To 40 µL of this mixture were added 20 µL of the activation mixture containing the indicated concentration of Ca^++, TF, PI, tPA in BSA 5 buffer. 5 µL of this of this solution was transferred to three 6 mm diameter paper rounds at the (flat) bottom of a 96-well plate. […] The plate was read in a Fluoroscan Ascent fluorometer at 37°C. Samples were measured every 10s at 390-460 nm for 50 minutes.
A plasmin generation experiment was carried out as described in the methods section with Boc-Glu-Lys-Lys-AMC (300 µM) as a substrate to which 8 µM AMC was added. […] We simultaneously recorded a fluorescence curve from plasmin-α2-macroglobulin complex, equivalent to 100 nM plasmin. From this curve, run to completion we found Fmax to be 1778 AU, whereas F0 as measured during the lag-times, was 49,2 AUs.

thrombin = molecular target: T2, thrombin (Homo sapiens, UniProt P00734); assay: Standard thrombin generation experiment in plasma, ratio method (kinetic constants of substrate conversion); conditions: substrate at 108 and 416 µM with 1 µM AMC added, 5 pM tissue factor, 37°C
T2 construct: from tissue; host or cells: plasma
Description: Plasma in solution: The TG experiments in the examples are variations on the standard experiment in which thrombin generation in plasma is measured in a 96-wells polystyrene microplate (Thermo Electron Corporation, Milford, MA, USA). All wells contained 80 µl plasma and 20 µl of a solution containing 0.5 - 5 pM tissue factor (TF) and 4 µM phospholipids (PL). To calibrator wells, 20 µl of calibrator was added instead so as to obtain the equivalent of 100 nM thrombin activity. Thrombin generation (TG) was initiated by the addition of 20 µl of substrate (standard: Z-Gly-Gly-Arg-AMC, 417 µM) and CaCl2 (16.6 mM).
• A. Addition of 80 µl plasma to each well • B. Addition of 20 µl TF/phospholipids mix or 20 µl calibrator to each well • C. Pre-heating of the plate for 10 min at 37°C • D. Addition of 20 µl FluCa kept at 37°C prior to the addition of the reaction mixture. • E. Immediate kinetic measurement of fluorescence in time (exc 390 nm / em 460 nm)
A standard thrombin generation experiment with 5 pM tissue factor was carried out, using Z-Gly-Gly-Arg-AMC as a substrate at the concentrations 108- and 416 bµM with 1µM of AMC added. Fom the fluorescence data the normalized ratio was calculated as Rt=(Fexp.t-F0)/(Fmax-F0) (dashed lines).

[2] = molecular target: T3, staphylocoagulase-thrombin (Homo sapiens, UniProt P00734); assay: Conversion of a substrate concentration series by staphylocoagulase-thrombin in 1:2 diluted normal plasma on filter paper
T3 construct: Antithrombin-resistant thrombin activity can also be obtained reacting prothrombin with the protein staphylocoagulase; made in house
From the text: Surface fluorescence in plasma and in whole blood has been essentially measured in the same way as published by Ninnivagi and Apitz for whole blood (Ninivaggi M, Apitz-Castro R, Dargaud Y, de Laat B, Hemker HC, Lindhout T. Whole blood thrombin generation monitored with a calibrated automated thrombogram-based assay. Clin.Chem. 2012,58:1252-1259) or in WO2006/117246. Paper discs of 5.5 mm diameter and 180 µm thickness (Whatman 589/1, Whatman GmbH, Dassel, Germany) were placed in flat bottom wells of a 96-wells polystyrene microplate (Thermo Electron Corporation, Milford, MA, USA).
• A. Preparation of paper matrices and placement into a flat-bottom 96 wells plate • B. Addition of the fluorogenic substrate solution to the plasma or to whole blood • C. Pre-heating of the reagents and whole blood for 2 min at 37°C • D. Mixing of the whole blood and the trigger mix or calibrator 1:1 • E. Pipetting 5 µL reaction mix onto the paper matrix • F. Pipetting 40 µL of mineral oil onto the paper matrix • G. Immediate measurement of fluorescence in time (exc 485 nm / em 538 nm)
In 1:2 diluted normal plasma adsorbed on filter paper a concentration series of mPEG-Gly-Pro-Arg-RhoAc (75, 150, 225, 300, 450 and 600 µM) was converted by 100 nM of staphylocoagulase-thrombin and the resulting fluorescence recorded as further described under materials and methods. […]

T1 sequence (P00747 581-810 limits assumed): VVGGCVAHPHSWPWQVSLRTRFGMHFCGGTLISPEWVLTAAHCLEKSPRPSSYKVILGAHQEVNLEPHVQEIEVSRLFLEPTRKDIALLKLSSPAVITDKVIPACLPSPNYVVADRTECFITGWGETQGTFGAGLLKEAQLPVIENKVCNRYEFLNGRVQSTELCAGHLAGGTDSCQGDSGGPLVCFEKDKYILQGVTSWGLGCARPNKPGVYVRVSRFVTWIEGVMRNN
T1 sequence (P00747 97-580 limits assumed): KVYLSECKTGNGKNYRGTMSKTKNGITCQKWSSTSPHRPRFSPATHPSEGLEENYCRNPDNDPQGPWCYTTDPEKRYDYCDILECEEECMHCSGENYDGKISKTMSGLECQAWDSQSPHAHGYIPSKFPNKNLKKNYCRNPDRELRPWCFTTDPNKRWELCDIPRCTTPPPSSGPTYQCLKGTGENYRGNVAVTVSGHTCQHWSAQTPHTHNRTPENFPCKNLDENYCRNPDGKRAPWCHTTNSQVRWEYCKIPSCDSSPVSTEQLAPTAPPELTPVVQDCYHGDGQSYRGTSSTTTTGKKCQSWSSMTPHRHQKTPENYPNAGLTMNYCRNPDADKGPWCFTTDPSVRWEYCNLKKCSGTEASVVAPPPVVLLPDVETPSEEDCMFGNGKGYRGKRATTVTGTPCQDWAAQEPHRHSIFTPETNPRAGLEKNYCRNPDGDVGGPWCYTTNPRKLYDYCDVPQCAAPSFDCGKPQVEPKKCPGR
T1 sequence (P01023 24-1474 partner): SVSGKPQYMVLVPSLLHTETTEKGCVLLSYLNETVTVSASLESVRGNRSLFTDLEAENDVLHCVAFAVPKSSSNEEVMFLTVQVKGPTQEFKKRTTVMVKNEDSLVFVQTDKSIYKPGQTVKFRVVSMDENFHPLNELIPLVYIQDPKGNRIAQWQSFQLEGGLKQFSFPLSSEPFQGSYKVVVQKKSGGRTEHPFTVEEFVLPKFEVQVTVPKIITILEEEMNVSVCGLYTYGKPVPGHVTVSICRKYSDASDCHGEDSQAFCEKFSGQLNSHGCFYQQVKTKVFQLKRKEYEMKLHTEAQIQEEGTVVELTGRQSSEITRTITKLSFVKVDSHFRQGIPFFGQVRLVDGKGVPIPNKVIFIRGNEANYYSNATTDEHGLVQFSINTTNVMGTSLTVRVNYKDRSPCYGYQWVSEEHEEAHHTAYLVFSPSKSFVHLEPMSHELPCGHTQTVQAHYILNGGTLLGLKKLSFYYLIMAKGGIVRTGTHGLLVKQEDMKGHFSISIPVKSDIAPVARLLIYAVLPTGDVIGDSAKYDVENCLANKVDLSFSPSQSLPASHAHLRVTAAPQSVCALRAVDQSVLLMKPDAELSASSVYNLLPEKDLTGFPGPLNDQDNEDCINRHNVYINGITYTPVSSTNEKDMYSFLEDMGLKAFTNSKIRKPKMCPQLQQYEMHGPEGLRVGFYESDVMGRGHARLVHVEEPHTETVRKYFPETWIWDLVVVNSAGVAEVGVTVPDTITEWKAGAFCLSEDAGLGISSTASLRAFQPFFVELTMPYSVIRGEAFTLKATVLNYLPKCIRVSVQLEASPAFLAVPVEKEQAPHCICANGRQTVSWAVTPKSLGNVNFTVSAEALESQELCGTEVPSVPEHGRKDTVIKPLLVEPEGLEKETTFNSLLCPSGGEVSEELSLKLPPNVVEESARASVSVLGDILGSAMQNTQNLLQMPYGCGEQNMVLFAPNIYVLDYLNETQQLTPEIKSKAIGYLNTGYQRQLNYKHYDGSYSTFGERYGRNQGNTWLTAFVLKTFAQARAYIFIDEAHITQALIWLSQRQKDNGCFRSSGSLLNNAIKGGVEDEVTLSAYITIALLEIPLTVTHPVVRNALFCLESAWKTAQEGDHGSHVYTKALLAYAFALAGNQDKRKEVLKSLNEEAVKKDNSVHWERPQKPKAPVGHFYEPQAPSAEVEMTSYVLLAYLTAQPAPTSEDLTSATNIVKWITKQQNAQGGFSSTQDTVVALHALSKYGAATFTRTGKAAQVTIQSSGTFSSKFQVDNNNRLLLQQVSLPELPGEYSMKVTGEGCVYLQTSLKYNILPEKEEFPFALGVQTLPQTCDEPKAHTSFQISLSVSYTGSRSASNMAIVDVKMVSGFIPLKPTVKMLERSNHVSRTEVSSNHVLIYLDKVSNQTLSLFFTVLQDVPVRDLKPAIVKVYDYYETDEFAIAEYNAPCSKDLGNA

Molecule: Cc1cc(=O)oc2cc(NC(=O)[C@H](CCCCN)NC(=O)[C@H](CCCCN)NC(=O)[C@H](CCC(=O)O)NC(=O)OC(C)(C)C)ccc12 [Boc-Glu-Lys-Lys-AMC, ButylOxyCarbonyl-Glu-Lys-Lys-AMC] (Boc-Glu-Lys-Lys-{AMC})
- Km/kcat [1]: 8660 nM·min

Molecule: Cc1cc(=O)oc2cc(NC(=O)C(CCCNC(=N)N)NC(=O)CNC(=O)CNC(=O)OCc3ccccc3)ccc12 (stereo not drawn) [Z-Gly-Gly-Arg-AMC]
- Km (thrombin): 900 µM
- kcat (thrombin): 1.9 s⁻¹

Molecule: mPEG-Gly-Pro-Arg-RhoAc
- Km/kcat ([2]; enzyme concentration 100 nM, any substrate concentration ≤ 600 µM): 11,36 µM.min
- Km ([2]; substrate 75-600 µM, 100 nM staphylocoagulase-thrombin, inferred from reaction velocity proportional to substrate concentration): > 600 µM
